According to PubChem BioAssay AID1845206 (Molecular Pharmacology Branch, DTP, NCI, 2023):

Tested on: NCI-H1618 multicellular tumor spheroid viability
Assay: Anticancer human tumor NCI-H1618 cell line growth inhibition;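 further: spheroids exposed to agents for 7 days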
Details: for IC50: curve of first compound; for viability, T/C: stronger effect = lower value
Text: Multicellular complex tumor spheroid response to DNA repair inhibitors in combination with DNA-damaging drugs
This study explores the anticancer activities of DNA-damaging drugs and inhibitors of DNA damage repair, both as single agents and in combinations. Complex tumor spheroids comprised of malignant cells, endothelial cells and mesenchymal stem cells served as an in vitro model for human solid tumors. This model system incorporates physiologically relevant features and patient-derived or established malignant cell lines with clinically relevant genetic alterations from many tumor types. Twenty-six patient-derived or established malignant cell lines were evaluated representing sarcoma, melanoma, small cell lung cancer (SCLC), non-small cell lung cancer (NSCLC), as well as bladder, ovarian and pancreatic cancers. The concentration ranges selected for each drug and investigational agent were based upon clinically achievable concentrations if the clinical Cmax of the agent was known.
Compounds. The drugs and compounds olaparib (NSC753686), talazoparib (NSC767125), berzosertib (NSC777718), elimusertib (NSC800525), nedisertib (NSC802822), VX-984 (NSC792969), AZD-1390 (NSC803789), temozolomide (NSC362856), topotecan (NSC609699), trabectedin (NSC813783), staurosporine (NSC755774), and gemcitabine (NSC613327) were obtained from the National Cancer Institute (NCI) Developmental Therapeutics Program Chemical Repository. The FDA-approved anticancer drug set is available from the Developmental Therapeutics Program at https://dtp.cancer.gov/organization/dscb/obtaining/available_plates.htm. […] The stock solutions were prepared in dimethyl sulfoxide (DMSO, Sigma-Aldrich, St. Louis, MO, cat. D2650) at 400-fold the tested concentration and stored at -70 degrees C. Prior to their use, the stock solutions were diluted in fresh medium and the final DMSO concentration in the assay was 0.25% (v/v). All drugs and investigational agents were tested over a range starting from a high concentration at or near the clinical Cmax and decreasing in half-log increments. If the clinical Cmax for an agent had not been determined, the highest concentration tested was 10 microM.
Cell Lines. The patient-derived cancer cell (PDC) lines: 156681-154-R-J1-PDC, 283228-195-R-J1-PDC, 287954-098-R-J1-PDC, 292921-168-R-J2-PDC, 349418-098-R-PDC, 425362-245-T-J1-PDC, 556581-035-R-J1-PDC, and BL0293-F563-PDC were received from the NCI Patient-Derived Models Repository (PDMR, https://pdmr.cancer.gov). The established cell lines HS-SY-2 (RRID:CVCL_8719), MPNST, and SYO-1 (RRID:CVCL_7146) were obtained from the Sloan Kettering Institute. The alveolar soft parts sarcoma cell line ASPS-1 (RRID:CVCL_S738) was established at the NCI and grown from internal seed stocks. The following established cell lines were purchased from the American Type Culture Collection (ATCC, Manassas, VA): G-401 (ATCC, cat. CRL-1441, RRID:CVCL_0270), SW982 (ATCC, cat. HTB-93, RRID:CVCL_1734), VA-ES-BJ (ATCC, cat. CRL-2138, RRID:CVCL_1785), NCI-H719 (ATCC, cat. CRL-5837, RRID:CVCL_1582), NCI-H196 (ATCC, cat. CRL-5823, RRID:CVCL_1509), NCI-H841 (ATCC, cat. CRL-5845, RRID:CVCL_1595), NCI-H1618 (ATCC, cat. CRL-5879, RRID:CVCL_1480), NCI-H1876 (ATCC, cat. CRL-5902, RRID:CVCL_1503), DMS 114 (ATCC, cat. CRL-2066; RRID:CVCL_1174), NCI-H211 (ATCC, cat. CRL-5824; RRID:CVCL_1529), and SW 1271 (ATCC, cat. CRL-2177, RRID:CVCL_1716). The small cell lung cancer cell line COR-L88 was purchased from Sigma-Aldrich (cat. 92031917-1VL, RRID:CVCL_1141). The non-small cell lung cancer cell lines NCI-H226 (RRID:CVCL_1544) and NCI-H322M (RRID:CVCL_1557) were established at the NCI and grown from internal seed stocks. Pooled donor human umbilical vein endothelial cells (HUVEC, Lonza, cat. CC-2519) and human mesenchymal stem cells (hMSC, Lonza, cat. PT-2501) were purchased from Lonza (Walkersville, MD).
Cell Culture. All cells were maintained in an incubator at 37 degrees C and 5% CO2 with 95% humidity. […]

[1] = second compound 0.003 µM, first compound 0.00949 µM
[2] = second compound 0.003 µM, first compound 0.03 µM
[3] = second compound 0.003 µM, first compound 0.0949 µM
[4] = second compound 0.003 µM, first compound 0.3 µM
[5] = second compound 0.003 µM, first compound 0.949 µM
[6] = second compound 0.003 µM, first compound 3 µM
[7] = second compound 0.00949 µM, first compound 0.00949 µM
[8] = second compound 0.00949 µM, first compound 0.03 µM
[9] = second compound 0.00949 µM, first compound 0.0949 µM
[10] = second compound 0.00949 µM, first compound 0.3 µM
[11] = second compound 0.00949 µM, first compound 0.949 µM
[12] = second compound 0.00949 µM, first compound 3 µM
[13] = second compound 0.03 µM, first compound 0.00949 µM
[14] = second compound 0.03 µM, first compound 0.03 µM
[15] = second compound 0.03 µM, first compound 0.0949 µM
[16] = second compound 0.03 µM, first compound 0.3 µM
[17] = second compound 0.03 µM, first compound 0.949 µM
[18] = second compound 0.03 µM, first compound 3 µM
[19] = second compound 0.0949 µM, first compound 0.00949 µM
[20] = second compound 0.0949 µM, first compound 0.03 µM
[21] = second compound 0.0949 µM, first compound 0.0949 µM
[22] = second compound 0.0949 µM, first compound 0.3 µM
[23] = second compound 0.0949 µM, first compound 0.949 µM
[24] = second compound 0.0949 µM, first compound 3 µM
[25] = second compound 0.3 µM, first compound 0.00949 µM
[26] = second compound 0.3 µM, first compound 0.03 µM
[27] = second compound 0.3 µM, first compound 0.0949 µM
[28] = second compound 0.3 µM, first compound 0.3 µM
[29] = second compound 0.3 µM, first compound 0.949 µM
[30] = second compound 0.3 µM, first compound 3 µM

SMILES | IC50 (second compound 0.003 µM) | IC50 (second compound 0.00949 µM) | IC50 (second compound 0.03 µM) | IC50 (second compound 0.0949 µM) | IC50 (second compound 0.3 µM) | viability, T/C [3] | viability, T/C [4] | viability, T/C [5] | viability, T/C [6] | viability, T/C [9] | viability, T/C [10] | viability, T/C [11] | viability, T/C [12] | viability, T/C [15] | viability, T/C [16] | viability, T/C [17] | viability, T/C [18] | viability, T/C [21] | viability, T/C [22] | viability, T/C [23] | further results
CNCc1ccc(-c2cc(-c3nc(-c4ccc(S(=O)(=O)C(C)C)cc4)cnc3N)on2)cc1 + CC[C@@]1(O)C(=O)OCc2c1cc1n(c2=O)Cc2cc3c(CN(C)C)c(O)ccc3nc2-1 | 187 nM | < 9.49 nM | < 9.49 nM | < 9.49 nM | < 9.49 nM | 61.7% | 44.8% | 1.59% | 0.23% | 34.5% | 1.73% | 0.75% | 0.62% | 1.54% | 1.41% | 0.72% | 0.23% | 1.35% | 1.36% | 0.81% | viability, T/C [1]: 95.1%; viability, T/C [2]: 94%; viability, T/C [7]: 20.6%; viability, T/C [8]: 77.9%; viability, T/C [13]: 1.33%; viability, T/C [14]: 15.5%; viability, T/C [19]: 1.38%; viability, T/C [20]: 14%; viability, T/C [24]: 0.45%; viability, T/C [25]: 1.25%; viability, T/C [26]: 1.26%; viability, T/C [27]: 1.42%; viability, T/C [28]: 1.51%; viability, T/C [29]: 17.5%; viability, T/C [30]: 0.43%
Cn1ncnc1[C@H]1c2n[nH]c(=O)c3cc(F)cc(c23)N[C@@H]1c1ccc(F)cc1 + CC[C@@]1(O)C(=O)OCc2c1cc1n(c2=O)Cc2cc3c(CN(C)C)c(O)ccc3nc2-1 | < 9.49 nM | < 9.49 nM | < 9.49 nM | < 9.49 nM | < 9.49 nM | 1.47% | 1.41% | 1.48% | 2.21% | 1.8% | 1.98% | 3.83% | 1.52% | 1.38% | 1.56% | 1.83% | 1.87% | 1.43% | 1.39% | 1.38% | viability, T/C [1]: 27.3%; viability, T/C [2]: 6.33%; viability, T/C [7]: 1.59%; viability, T/C [8]: 2.38%; viability, T/C [13]: 1.39%; viability, T/C [14]: 3.65%; viability, T/C [19]: 1.47%; viability, T/C [20]: 1.59%; viability, T/C [24]: 1.57%; viability, T/C [25]: 1.23%; viability, T/C [26]: 1.22%; viability, T/C [27]: 1.27%; viability, T/C [28]: 1.22%; viability, T/C [29]: 1.24%; viability, T/C [30]: 1.3%
O=C(c1cc(Cc2n[nH]c(=O)c3ccccc23)ccc1F)N1CCN(C(=O)C2CC2)CC1 + CC[C@@]1(O)C(=O)OCc2c1cc1n(c2=O)Cc2cc3c(CN(C)C)c(O)ccc3nc2-1 | 1250 nM | < 94.9 nM | < 94.9 nM | < 94.9 nM | < 94.9 nM | 89% | 84% | 61.2% | 15% | 2.05% | 2.74% | 1.49% | 2.37% | 2.9% | 1.36% | 1.85% | 1.67% | 13.1% | 1.67% | 2.53% | viability, T/C (second compound 0.003 µM, first compound 9.49 µM): 3.53%; viability, T/C (second compound 0.003 µM, first compound 30 µM): 3.79%; viability, T/C (second compound 0.00949 µM, first compound 9.49 µM): 9.35%; viability, T/C (second compound 0.00949 µM, first compound 30 µM): 2.81%; viability, T/C (second compound 0.03 µM, first compound 9.49 µM): 2.73%; viability, T/C (second compound 0.03 µM, first compound 30 µM): 2.96%; viability, T/C [24]: 1.83%; viability, T/C (second compound 0.0949 µM, first compound 9.49 µM): 2.3%; viability, T/C (second compound 0.0949 µM, first compound 30 µM): 2.69%; viability, T/C [27]: 1.51%; viability, T/C [28]: 1.22%; viability, T/C [29]: 1.9%; viability, T/C [30]: 1.37%; viability, T/C (second compound 0.3 µM, first compound 9.49 µM): 1.77%; viability, T/C (second compound 0.3 µM, first compound 30 µM): 3.42%
